In PubChem BioAssay AID2060483 (Molecular Pharmacology Branch, DTP, NCI, 2025):
pIC50: −log10 of the molar value.

System: K24384-001-R-PDC complex spheroids, viability
Assay: Anticancer human tumor K24384-001-R-PDC patient-derived pancreatic adenocarcinoma cell line growth inhibition [GQUAD]
Settings: for pIC50: curve of first compound; for viability, T/C: stronger effect = lower value
Excerpt: DNA G-quadruplex Stabilizer Agents in Combinations in Complex Spheroids
A high-throughput screen of multi-cell type tumor spheroids was designed to identify active combinations of DNA G-quadruplex stabilizer agents and targeted small molecules. Complex spheroids include a stromal component modeled by human endothelial cells (HUVEC) and fibroblasts modeled by human mesenchymal stem cells (MSCs). The concentration ranges selected for each drug and investigational agent were based upon clinically achievable concentrations if the clinical Cmax of the agent was known.
Compounds. The drugs and investigational agents: pidnarulex (CX-5461; NSC782164), APTO-253 (NSC789042), BRACO-19 (NSC847499), peposertib (NSC802822), ceralasertib (NSC780249), elimusertib (NSC800525), camonsertib (NSC841442), AZD-1390 (NSC803789), olaparib (NSC753686), talazoparib (NSC767125), ART-558 (NSC835418), sotorasib (NSC818433), MRTX-1133 (NSC836407), SN-38 (NSC673596), topotecan (NSC609699), etoposide (NSC141540), doxorubicin (NSC123127), gemcitabine (NSC613327), 5-fluorouracil (NSC19893), paclitaxel (NSC125973), vemurafenib (NSC761431), panobinostat (NSC761190), R-306465 (JNJ-16241199; NSC773264), adavosertib (NSC754352), TP-3654 (NSC805149), carboplatin (NSC241240), KSQ-4279 (NSC840948), and staurosporine (NSC755774) were obtained from the National Cancer Institute (NCI) Developmental Therapeutics Program Chemical Repository (34). The FDA-approved anticancer drug set is available from the NCI Developmental Therapeutics Program. […] The stock solutions were prepared in dimethyl sulfoxide (DMSO, Sigma-Aldrich, St. Louis, MO, cat. D2650) at 800-fold the tested concentration and stored at -70 degrees C prior to their use. All drugs and investigational agents were tested over a range starting from a high concentration at or near the clinical Cmax and decreasing in half-log increments. If the clinical Cmax for an agent had not been determined, the highest concentration tested was 10 microM.
2.3 Cell Culture. All cells were maintained in an incubator at 37 degrees C and 5% CO2 with 95% humidity. The PDC lines were cultured according to standard operating procedures established by the NCI PDMR. All PDCs were thawed and cultured in Matrigel-coated flasks prepared with a working solution of 1X Ham's F-12 nutrient mix, without supplementation (Invitrogen, cat. 11765054), 100 U/mL penicillin-streptomycin (Invitrogen, cat. 15140122), and 2.5% Matrigel (Corning Inc., cat. 354248) for the first three passages. The 857933-349-R-J2-PDC line was cultured in 6C/Colon 1B media, which includes advanced DMEM/F-12 (Thermo Fisher Scientific, cat. 12634028), 10 mM HEPES (Thermo Fisher Scientific, cat. 15630080), 1X GlutaMAX supplement (Thermo Fisher Scientific, cat. 35050061), 0.1 mg/mL primocin (InvivoGen, cat. ant-pm-2), 10% defined fetal bovine serum, heat inactivated (HyClone Laboratories Inc., cat. SH30070.03HI), 50% L-WRN conditioned media (ATCC, cat. CRL-3276), 1.25 mM N-Acetyl-L-cysteine (Sigma-Aldrich, cat. A9165), 10 mM nicotinamide (Sigma-Aldrich, cat. N0636), 1X B-27 supplement (Thermo Fisher Scientific, cat. 17504044), 1X N-2 supplement (Thermo Fisher Scientific, cat. 17502048), 10 microM Y-27632 dihydrochloride (Tocris Bioscience, cat. 1254), and 50 ng/mL human EGF recombinant protein (Thermo Fisher Scientific, cat. PHG0311). The 485176-168-R4-J1-PDC line was cultured in Panc media, which includes all 6C/Colon 1B media components plus 100 ng/mL human FGF-10 (Thermo Fisher Scientific, cat. 100-26), 500 nM SB-431542 (Selleckchem, cat. S1067), and gastrin (Tocris, cat. 3006).
[…]

[1] = second compound 0.0316 µM, first compound 0.0316 µM
[2] = second compound 0.0316 µM, first compound 0.1 µM
[3] = second compound 0.0316 µM, first compound 0.316 µM
[4] = second compound 0.0316 µM, first compound 1 µM
[5] = second compound 0.0316 µM, first compound 3.16 µM
[6] = second compound 0.0316 µM, first compound 10 µM
[7] = second compound 0.1 µM, first compound 0.0316 µM
[8] = second compound 0.1 µM, first compound 0.1 µM
[9] = second compound 0.1 µM, first compound 0.316 µM
[10] = second compound 0.1 µM, first compound 1 µM
[11] = second compound 0.1 µM, first compound 3.16 µM
[12] = second compound 0.1 µM, first compound 10 µM
[13] = second compound 0.316 µM, first compound 0.0316 µM
[14] = second compound 0.316 µM, first compound 0.1 µM
[15] = second compound 0.316 µM, first compound 0.316 µM
[16] = second compound 0.316 µM, first compound 1 µM
[17] = second compound 0.316 µM, first compound 3.16 µM
[18] = second compound 0.316 µM, first compound 10 µM
[19] = second compound 1 µM, first compound 0.0316 µM
[20] = second compound 1 µM, first compound 0.1 µM
[21] = second compound 1 µM, first compound 0.316 µM
[22] = second compound 1 µM, first compound 1 µM
[23] = second compound 1 µM, first compound 3.16 µM
[24] = second compound 1 µM, first compound 10 µM
[25] = second compound 3.16 µM, first compound 0.0316 µM
[26] = second compound 3.16 µM, first compound 0.1 µM
[27] = second compound 3.16 µM, first compound 0.316 µM
[28] = second compound 3.16 µM, first compound 1 µM
[29] = second compound 3.16 µM, first compound 3.16 µM
[30] = second compound 3.16 µM, first compound 10 µM
[31] = second compound 10 µM, first compound 0.0316 µM
[32] = second compound 10 µM, first compound 0.1 µM
[33] = second compound 10 µM, first compound 0.316 µM
[34] = second compound 10 µM, first compound 1 µM
[35] = second compound 10 µM, first compound 3.16 µM
[36] = second compound 10 µM, first compound 10 µM
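Note: spheroids exposed to compounds for seven days.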

For `COc1cc(C2c3cc4c(cc3C(OC3OC5COC(C)OC5C(O)C3O)C3COC(=O)C23)OCO4)cc(OC)c1O` (centres undefined) + Cc1[nH]c2ccc(F)cc2c1-c1nc2c3cccnc3c3ncccc3c2[nH]1, the pIC50 (second compound 0.0316 µM) was 5.52, the pIC50 (second compound 0.1 µM) was 5.88 and the pIC50 (second compound 0.316 µM) was 5.71. The pIC50 (second compound 1 µM) was 5.56, the pIC50 (second compound 3.16 µM) was 5.73 and the pIC50 (second compound 10 µM) was 6.16. For the same compound, the viability, T/C [1] was 104%, the viability, T/C [2] was 96% and the viability, T/C [3] was 73.3%. It also gave a viability, T/C [4] of 71%, a viability, T/C [5] of 47.1% and a viability, T/C [6] of 33.5%. The viability, T/C [7] was 90%, the viability, T/C [8] was 94.7% and the viability, T/C [9] was 68.8%. The viability, T/C [10] was 57%, the viability, T/C [11] was 37.5% and the viability, T/C [12] was 35.9%. It also gave a viability, T/C [13] of 113%, a viability, T/C [14] of 99.5% and a viability, T/C [15] of 75.6%. It also gave a viability, T/C [16] of 59.3%, a viability, T/C [17] of 44.1% and a viability, T/C [18] of 35.2%. The viability, T/C [19] was 85%, the viability, T/C [20] was 80.7% and the viability, T/C [21] was 68.7%. The viability, T/C [22] was 67.6%, the viability, T/C [23] was 44.5% and the viability, T/C [24] was 38.1%. For the same compound, the viability, T/C [25] was 83.2%, the viability, T/C [26] was 71.8% and the viability, T/C [27] was 67.6%. For the same compound, the viability, T/C [28] was 69.6%, the viability, T/C [29] was 33.2% and the viability, T/C [30] was 30.8%. It also gave a viability, T/C [31] of 55.4%, a viability, T/C [32] of 59.5% and a viability, T/C [33] of 53.1%. For the same compound, the viability, T/C [34] was 47.7%, the viability, T/C [35] was 24.5% and the viability, T/C [36] was 19.8%.
In the case of `O=C(c1cc(Cc2n[nH]c(=O)c3ccccc23)ccc1F)N1CCN(C(=O)C2CC2)CC1` + Cc1[nH]c2ccc(F)cc2c1-c1nc2c3cccnc3c3ncccc3c2[nH]1, the pIC50 (second compound 0.0316 µM) was under 5.00, the pIC50 (second compound 0.1 µM) was under 5.00 and the pIC50 (second compound 0.316 µM) was under 5.00. The pIC50 (second compound 1 µM) was under 5.00, the pIC50 (second compound 3.16 µM) was under 5.00 and the pIC50 (second compound 10 µM) was under 5.00. For the same compound, the viability, T/C [1] was 101%, the viability, T/C [2] was 94% and the viability, T/C [3] was 99.6%. The viability, T/C [4] was 94.3%, the viability, T/C [5] was 84.4% and the viability, T/C [6] was 93.1%. The viability, T/C [7] was 103%, the viability, T/C [8] was 104% and the viability, T/C [9] was 147%. It also gave a viability, T/C [10] of 98.7%, a viability, T/C [11] of 89.8% and a viability, T/C [12] of 83.9%. It also gave a viability, T/C [13] of 96.8%, a viability, T/C [14] of 97.4% and a viability, T/C [15] of 95.7%. The viability, T/C [16] was 85.7%, the viability, T/C [17] was 82.3% and the viability, T/C [18] was 91.1%. It also gave a viability, T/C [19] of 78.1%, a viability, T/C [20] of 88% and a viability, T/C [21] of 90.5%. For the same compound, the viability, T/C [22] was 87.5%, the viability, T/C [23] was 89% and the viability, T/C [24] was 69.7%. The viability, T/C [25] was 82.9%, the viability, T/C [26] was 78.1% and the viability, T/C [27] was 64.3%. It also gave a viability, T/C [28] of 77.9%, a viability, T/C [29] of 82% and a viability, T/C [30] of 67.3%. For the same compound, the viability, T/C [31] was 69.7%, the viability, T/C [32] was 70.7% and the viability, T/C [33] was 62.5%. For the same compound, the viability, T/C [34] was 69%, the viability, T/C [35] was 74.5% and the viability, T/C [36] was 56.1%.
